Data published in paper PMC10845954, “Novel antimicrobial peptides identified in legume plant, Medicago truncatula” (Microbiology Spectrum, 2024).
Where a SMILES comes first, the peptide text is derived from it.

System: leukemia (K562) cell line
Assay: Cell viability (MTT assay)
Type: cell-based, human
Conditions: 100 µM, 24 hrs exposure, absorbance 540 nm, cutoff 20%, mean of four independent experiments
Experimental: Dulbecco’s modified Eagle medium (DMEM) supplemented with 10% fetal bovine serum (FBS) and 1% penicillin (10.000 IU/mL)/streptomycin (50 mg/mL) was used to grow the […] human leukemia cell line (K562) in flasks at 37°C in a humidified environment of 5% CO2/air.
K562 cells were cultivated in DMEM with FBS 10% and penicillin–streptomycin 1%, and they were incubated at 37°C with 5% CO2 present. Using the MTT assay, the cytotoxicity of the three NCRs was evaluated. K562 cells were grown at a density of 3–4 × 10^4 cells per well in a 96-well plate and allowed to adhere for 24 hrs. […] Using a microplate reader, absorbance was measured at 540 nm. […]
Fig 7 The toxicity % of the NCRs (NCR094 and NCR992) toward leukemia cell line (K562). […] Absorbance was read at 540, and the toxicity% was calculated from four independent experiments, and the results were represented as average of the % toxicity and standard deviations from four independent experiments. […]
The cells were treated with were treated with 10-fold concentration (100, 10, 1, 0 μM) of NCR992.1 After 24 hrs exposure, MTT were added, and cells were incubated for 4 hrs. […] Absorbance was read at 540 and the toxicity% were calculated and the results were presented as means and error bars were ± SD values from four independent experiments.

CC[C@H](C)[C@H](NC(=O)[C@H](CCSC)NC(=O)CNC(=O)[C@H](Cc1ccccc1)NC(=O)[C@H](CCC(=O)O)NC(=O)[C@H](CS)NC(=O)[C@@H](N)CCSC)C(=O)N[C@@H](CCCNC(=N)N)C(=O)N[C@@H](CCCNC(=N)N)C(=O)N[C@@H](CS)C(=O)N[C@H](C(=O)N[C@@H](CO)C(=O)N[C@@H](Cc1ccc(O)cc1)C(=O)N[C@@H](CCCCN)C(=O)N[C@@H](CS)C(=O)N[C@@H](CCC(N)=O)C(=O)N[C@@H](CS)C(=O)N[C@@H](Cc1c[nH]cn1)C(=O)N[C@@H](CCC(=O)O)C(=O)N[C@@H](C)C(=O)N[C@@H](Cc1ccc(O)cc1)C(=O)O)[C@@H](C)CC [NCR992] (H-MCEFGMIRRCISYKCQCHEAY-OH; N-terminus and C-terminus assumed)
toxicity % toward K562: 8.54%
